“Also recorded” adds a separate entry of the source.

We go through one compound from US20240148728A1, “NOVEL METHOD TO BLOCK IN[…] DEATH AND IL-1BETA SECRETION CAUSED BY […] UV I[…] GENETIC AND CHEMICAL INHIBITORS OF ZAKA AND THE NLRP1 INFLAMMASOME” (priority 2021, published 2024).

In data set [1] the test system is 293T-ASC-GFP-NLRP1. It counts as cell-based, human.
The test system of data set [2] is immortalized keratinocytes (N-TERT). Description: Pyroptosis / apoptosis in N-TERT keratinocytes (morphology, ASC-GFP, PI, Annexin V, immunoblot). It counts as cell-based, human. The source says:
(§1) The following antibodies were used in this study: cleaved PARP1 (Abclonal, #WH162766), Cleaved CASP3 (Abclonal, #WH154646), Full length GSDMD-FL (Abcam, #ab210070), IL1β p17 specific (CST, #83186S), CARD8 (Abcam, CARD8-NT: ab19485, CARD8-CT: ab241186), DPP9 (Abcam, ab226334), c-Myc (Santa Cruz Biotechnology, #sc-40), HA tag (Santa Cruz Biotechnology, #sc-805), GAPDH (Santa Cruz Biotechnology, #sc-47724), ASC (Adipogen, #AL-177), CASP1 (Santa Cruz Biotechnology, #sc-622), 11_1B (R&D systems, #AF-201), FLAG (SigmaAldrich, #F3165), NLRP1 (R&D systems, #AF6788), IL18 (Abcam ab207324), cleaved GSDMD-NT (Asp275) (Cell Signaling Technology, #36425), RPL31 (Abclonal, #WH162766), CASP7 (Abcam, ab255818), CASP8 (Abcam, ab32397), cleaved CASP3 (Cell Signaling Technology, #9664). All horseradish peroxidase (HRP)— conjugated secondary antibodies were purchased from Jackson Immunoresearch (goat anti-mouse IgG: 115-035-166; goat anti-rabbit IgG: 111-035-144; and donkey anti-goat IgG: 705-005-147). Blue-Native PAGE was carried out using the Native-PAGE system (ThermoFisher) with 10-20 μg of total lysate. For SDS-PAGE using whole cell lysates, cells were resuspended in tris-buffered saline 1% NP-40 with protease inhibitors (Thermo Scientific, #78430). Protein concentration was determined using the Bradford assay (Thermo Scientific, #23200) and […] of protein loaded, a part from cleaved GSDMD-NT visualisation where […] of protein was used. All primary antibodies were used at 250 ng/ml. Visualisation of ASC oligomerization was previously described (Robinson et al., 2020). For analysis of IL1β and IL-18 cleavage in the media by immunoblotting, samples were concentrated using filtered centrifugation (Merck, Amicon Ultra, #UFC5003BIK). Protein samples were run using immunoblotting, and then visualized using a ChemiDoc Imaging system (Bio-Rad). PhosTag SDS-PAGE was carried out using homemade 10% SDS-PAGE gel, with addition of Phos-tag Acrylamide (Wako Chemicals, AAL-107) to a final concentration of 30 μM and manganese chloride(II) (Sigma-Aldrich, #63535) to 60 μM.
N-TERT-ASC-GFP cells were seeded at a cell density of 3000 cells/well of a 96 black well plate (PerkinElmer, CellCarrier-96 Ultra, #6055300). The next morning cells were treated with chemicals for 6 h or treated in the evening for 24 h before staining. 1 hour before observing the cells on the microscope the cells were stained with 1 μg/ml dilution of propidium iodide (PI, Abcam #ab14083), 10 ng/ml dilution of Hoechst 33342 (Life Technologies, #H21492) or stained with Annexin V Alexa Flour 647 (Life technologies, #A23204) according to the manufacturer's protocol. Stained cells were then imaged on a high content screening microscope (Perkin Elmer Operetta CLS imaging system). Images were then stored and analyzed using the Harmony software (Version 6). Fluorescent and brightfield images acquired on the Operetta high content screening microscope were further analyzed using a scoring system to categorize the percentages of live, apoptotic and pyroptotic cells. For 3 fields of view per treatment the number of live cells per field was counted from the merge of the brightfield and ASC-GFP channels. Only cells which contained ASC-GFP throughout the cytoplasm and nucleus were classed as “live”. The number of pyroptotic cells was calculated using the merge of the brightfield and ASC-GFP channels. Only the cells with GFP specks were classed as “pyroptotic”. The number of apoptotic cells was calculated using the merge of the brightfield, ASC-GFP and Annexin V channels. Cells that were stained positive for Annexin V but without a GFP speck were classified as “apoptotic”. Images of ASC-GFP specks were acquired in 3 random fields in 4′,6-diaminidino-2-phenylindole (DAPI, 358 nm/461) and GFP (469 nm/525 nm) channels using the EVOS microscope (FL Auto M5000, #AM F5000) according to the manufacturer's protocol. […]

For data set [3], the system named is aortic endothelial cells (HAECs). Kind of data set: Inflammasome activation and pyroptosis in aortic endothelial cells. It counts as cell-based, human. To be noted: ANS 1 μM.
The test system of data set [4] is MV4-11. Kind of data set: GSDMD cleavage in MV4-11 leukemia cell line. It counts as cell-based, human. Particulars: CARD8-activating cell line.
Data set [5] concerns the target T1, human DPP9 (Homo sapiens, UniProt Q86TI2).
T1 construct: expressed in transfected cells; host or cells: 293T
Description: DPP8/9 activity assay (in vitro proteolysis assay). It counts as biochemical. To be noted: Gly-Pro-AMC hydrolysis. As to the method: 293T cells were transfected with vector or wild-type DPP9. DPP9-transfected cells were treated with VbP, Anisomycin (ANS) or Harringtonine (HTN). Cells were lysed in PBS 1% Tween-20, 48 h after transfection and treatments. 0.3 μg of total lysate was then incubated with 0.1 μM uGly-Pro-AMC fluorescence substrate. AMC fluorescence was measured after 30 mins at 25° C. in a 50 μl reaction every minute on a spectrometer and the rate of Gly-Pro-AMC hydrolysis per minute calculated.

Data set [6] concerns NLRP1^DR. Description: NLRP1 PYD-DR1 / NLRP1^DR phosphorylation (GFP fusion, immunoblot, PhosTag SDS-PAGE) in N-TERT cells. Type of data set: cell-based, human.
From the text: as §1
Cells were directly harvested using Laemmli buffer, lysed with an ultrasonicator, and loaded into the Phos-tag gel to run. Once the run was completed, the polyacrylamide gel was washed in transfer buffer with 10 mM EDTA twice, subsequently washed without EDTA twice, blotted onto 0.45 μm PVDF membranes (Bio-rad), blocked with 3% milk, and incubated with primary and corresponding secondary antibodies.

Data set [7] relates to ASC. Description: Phosphorylation of inflammasome adaptor ASC. Type of data set: cell-based, human. Particulars: data not shown.

T1 sequence (Q86TI2 whole entry): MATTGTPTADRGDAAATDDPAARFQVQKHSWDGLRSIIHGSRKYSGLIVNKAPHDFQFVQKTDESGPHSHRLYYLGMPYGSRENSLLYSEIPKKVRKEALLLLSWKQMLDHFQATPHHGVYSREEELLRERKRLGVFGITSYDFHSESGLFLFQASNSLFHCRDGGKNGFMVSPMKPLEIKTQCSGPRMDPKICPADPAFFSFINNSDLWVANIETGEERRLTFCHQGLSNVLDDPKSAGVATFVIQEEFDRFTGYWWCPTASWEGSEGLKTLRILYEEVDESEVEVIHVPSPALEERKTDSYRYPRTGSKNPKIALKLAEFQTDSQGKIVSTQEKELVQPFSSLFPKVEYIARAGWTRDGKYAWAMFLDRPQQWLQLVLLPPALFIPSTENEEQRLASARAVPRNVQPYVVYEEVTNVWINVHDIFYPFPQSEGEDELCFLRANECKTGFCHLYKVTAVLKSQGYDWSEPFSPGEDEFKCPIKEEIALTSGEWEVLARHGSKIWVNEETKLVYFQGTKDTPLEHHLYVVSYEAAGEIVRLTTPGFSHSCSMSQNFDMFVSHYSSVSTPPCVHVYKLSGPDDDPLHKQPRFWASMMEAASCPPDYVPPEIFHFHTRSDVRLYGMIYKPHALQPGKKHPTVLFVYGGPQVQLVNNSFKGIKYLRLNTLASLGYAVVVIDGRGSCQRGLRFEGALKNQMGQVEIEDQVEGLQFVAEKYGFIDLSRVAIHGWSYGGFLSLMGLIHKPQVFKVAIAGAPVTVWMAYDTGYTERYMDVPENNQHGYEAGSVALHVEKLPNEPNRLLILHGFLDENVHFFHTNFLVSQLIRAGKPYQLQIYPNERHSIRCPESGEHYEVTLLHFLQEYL

On to `COc1ccc(C[C@H]2NC[C@H](O)[C@H]2OC(C)=O)cc1` [ANS, Anisomycin], for which the “ASC-GFP speck formation, screen of cytotoxic chemicals” value in data set [1] (ANS 1 μM, LTM 1 μg/ml, STS 1 μM) is given as “identified two hits”. Also, the “percentage of cells with ASC-GFP specks compared with VbP” value in data set [1] (equivalent concentrations) was “to a greater extent than VbP at equivalent concentrations”. For the same compound, in data set [1] (increasing levels of ANS), the “dose dependence of percentage of cells with ASC-GFP specks” value is recorded as “in a dose-dependent manner (FIG. 2B) up to 20 μM”. The “mode of cell death (apoptosis / pyroptosis)” value in data set [2] (Annexin V staining and PI inclusion, immunoblot markers) was “caused both apoptosis and pyroptosis; also recorded: activate both forms of cell death”. Also, in data set [2] (NLRP1 KO N-TERT, Annexin V and PI staining), the “mode of cell death in NLRP1 KO cells” value was “died exclusively through apoptosis”. Moreover, in data set [2] (immunoblot), the “apoptotic cell death (cleaved caspase-3 and PARP-1)” value is recorded as “activated classical apoptotic cell death”; the “biochemical hallmarks of inflammasome activation (ASC polymerization, GSDMD-NT, IL1β p17 in media)” value is given as “displayed cardinal biochemical hallmarks of inflammasome activation”. Moreover, in data set [2] (membrane ballooning, ASC-GFP specks, PI uptake), the “morphological hallmarks of inflammasome activation and pyroptotic cell death” value was “rapidly induced the morphological hallmarks of inflammasome activation and pyroptotic cell death”. The “fraction of pyroptotic cells” value in data set [2] (single cell level, compared with VbP) is “comparable to that induced by VbP”. Further, in data set [3], the “canonical inflammasome activation and pyroptosis” value is “underwent canonical inflammasome activation and pyroptosis”. Moreover, in data set [4], the GSDMD cleavage entry is “did not display detectable GSDMD cleavage”. Besides, the “catalytic activity of human DPP9” value in data set [5] was “had no effect on the catalytic activity of human DPP9”. The “NLRP1^DR hyperphosphorylation” value in data set [6] (NLRP1DR-GFP in N-TERT cells, PhosTag SDS-PAGE) is listed as “became further phosphorylated”. Also, the “band shift (phosphorylation) of PYD-DR1-GFP” value in data set [6] (NLRP1 KO N-TERT cells expressing GFP-tagged PYD-DR1) is on record as “band shift in PYD-DR1-GFP”. Moreover, the “phosphorylation of ASC” value in data set [7] is “not phosphorylated”.
